From paper PMC6716272, “In Vivo and In Vitro Analyses of Novel Peptidomimetic Disruptors for the Serotonin 5-HT2C Receptor Interaction With Phosphatase and Tensin Homolog” (Frontiers in Pharmacology, 2019)

Tests used:
PTEN = PTEN lipid phosphatase activity assay (competitive ELISA for PI(4,5)P2); format: biochemical; conditions: 15 min preincubation 37°C with 1 ng/µl PTEN, then 4 µM PI(3,4,5)P3 2.25 h, two independent experiments in triplicate
Protocol: Lipid phosphatase activity of PTEN was quantified using a PTEN activity ELISA kit (K-4700, Echelon Biosciences, Salt Lake City, UT) following the manufacturer’s protocol. Briefly, 1 ng/µl PTEN enzyme (E-3000, Echelon Bioscience) was incubated with PTEN inhibitor SF1670 (200 µM), 1, 2, and 2 derivatives (10 µM) for 15 min at 37°C. Then, PI(3,4,5)P3 substrate was added for a final concentration of 4 µM, and the reaction was incubated at 37°C for 2.25 h. The lipid phosphatase activity of PTEN was quantified by measuring the amount of PI(4,5)P2 by competitive ELISA in which final absorbance is inversely related to the amount of PI(4,5)P2. The absorbance was measured by FlexStation3 at 450 nm (Molecular Devices). Results are represented as fold change over PTEN + PI(3,4,5)P3 alone (mean ± SD) of two independent experiments run in technical triplicates and analyzed by one-way ANOVA with a priori comparison with PTEN + PI(3,4,5)P3 alone (Dunnett’s; GraphPad Prism 7.02). All statistical analyses were conducted with an experiment-wise error rate of α = 0.05.

[1] = test system: human unedited 5-HT2CR (h5-HT2CR-CHO cells); format: cell-based; conditions: for EMAX (%5-HT): maximum 5-HT-induced Cai2+ release in presence of 1 nM peptide derivative, 5-HT vehicle, 10^-11 to 10^-6 M, 5-HT alone = 100%, AUC normalised to crystal violet, mean ± SEM of 4–5 biological replicates, SEM; for change of 5-HT EC50 / potency versus 5-HT alone: pretreatment with 1 nM peptide; for elevation of the maximum Cai2+ release induced by 5-HT: pretreatment with peptide (1 nM), p < 0.05
[2] = test system: human unedited 5-HT2CR (h5-HT2CR-CHO cells); conditions: ref Anastasio et al., 2013; cited from earlier work
Source text: Agonist binding to the 5-HT2CR results in dynamic changes in receptor conformation and induction of a variety of intracellular signaling pathways ([Berg et al., 1994]; [McGrew et al., 2002]; [Werry et al., 2005]; [Labasque et al., 2008]). Best characterized is coupling of the 5-HT2CR to Gαq/11 proteins to activate phospholipase Cβ (PLCβ), resulting in increased intracellular calcium (Cai ^2+) release, among various other signaling outcomes ([Millan et al., 2008]). One approach to selectively target the 5-HT2CR signaling is through protein–protein interactions that are selective for 5-HT2CR ove ...

[3] = test system: cocaine–saline-trained rats; experiment: Two-lever drug discrimination, cocaine (5 mg/kg) vs saline; format: in vivo, rat; conditions: for cocaine-lever responding, pretreatment before cocaine (2.5 mg/kg): lorcaserin 1 mg/kg (30 min) or SB242084 0.5 mg/kg (45 min) before test; for cocaine-lever responding in substitution test / response rate in substitution test: SB242084 0.5 mg/kg; for cocaine-lever responding in substitution test: cocaine 2.5 mg/kg, i.p.
Protocol: (§1) Experimentally naïve male Sprague-Dawley rats (n = 43; Envigo, Inc.) weighing 300–325 g at the beginning of the experiment were housed two per cage in a temperature- (21–23°C) and humidity- (45–50%) controlled environment; lighting was maintained under a 12-h light–dark cycle (0700–1900 h). Rats were maintained at 80–90% of their free-feeding weights by restricting access to water. Rats received water during daily training sessions (5–6 ml/rat/session), in the afternoon several hours after training (20 min), and over the weekend (36 h). Experiments were conducted during the light phase of the light–dark cycle (between 0900 and 1200 h) and were carried out in accordance with the National Institutes of Health Guide for the Care and Use of Laboratory Animals and with the approval of the Institutional Animal Care and Use Committee at University of Texas Medical Branch.
(§2) The procedures were conducted in commercially available two-lever operant chambers (Med Associates, St. Albans, VT). Each chamber was equipped with a water-filled dispenser mounted equidistantly between two retractable response levers on the wall and housed in a light- and soundproof cubicle. Illumination came from a 28-V house light; ventilation and masking noise were provided by a ventilation fan in the right-side wall. A computer with Med-PC IV software was used to run programs and record all experimental events.
(§3) Standard two-lever, water-reinforced drug discrimination procedures were used ([Appel and Cunningham, 1986]; [Callahan and Cunningham, 1995]; [Colpaert, 1999]). Three cohorts (n = 13–16/cohort) were trained to discriminate an injection of a training drug from saline (1.0 ml/kg, i.p.) administered 15 min before start of daily (Monday–Friday) training sessions. In one cohort (n = 14), rats were trained to discriminate the training drug lorcaserin (0.75 mg/kg, 1.0 ml/kg, i.p.) from saline. In a second cohort (n = 13), rats were trained to discriminate the training drug WAY163909 (0.75 mg/kg, 1.0 ml/kg, i.p.) from saline. In the third cohort, rats (n = 16) were trained to discriminate the training drug cocaine (5 mg/kg, 1.0 ml/kg, i.p.) from saline. Two rats in the lorcaserin–saline cohort were excluded from the present study due to failure to maintain the discrimination. Rats in the WAY163909–saline cohort also participated in additional studies ([Wild et al., 2018]); the WAY163909 dose–response curve was reevaluated between studies; a washout period was allowed, and no carryover effects were observed.
(§4) During this phase, only the stimulus-appropriate (drug or saline) lever was present. Training began under a fixed ratio 1 (FR 1) schedule of water reinforcement, and the FR requirement was incremented until all animals were responding reliably under an FR 20 schedule for each experimental condition. For half of the rats, left lever responses were reinforced after training drug administration, whereas right lever responses were reinforced after saline administration; conditions were reversed for the remaining animals. During this phase of training, drug and saline were administered irregularly with the restriction that neither condition prevailed for more than three consecutive sessions.
(§5) After responding stabilized, both levers were presented simultaneously during 15-min training sessions. The rats were required to respond on the stimulus-appropriate (correct) lever to obtain water reinforcement. There were no programmed consequences for responding on the incorrect lever. This phase of training continued until the performance of all rats attained criterion (defined as mean accuracies of at least 80% stimulus-appropriate responding for 10 consecutive sessions).
(§6) Test sessions were initiated and conducted once or twice per week following attainment of criterion. Training sessions were run during the intervening days to maintain discrimination accuracy. […]

[4] = test system: lorcaserin–saline-trained rats; experiment: Two-lever drug discrimination, lorcaserin (0.75 mg/kg) vs saline; format: in vivo, rat
Protocol: as §1, §2, §3, §4, §5, §6

[5] = test system: WAY163909–saline-trained rats; experiment: Two-lever drug discrimination, WAY163909 (0.75 mg/kg) vs saline; format: in vivo, rat
Protocol: as §1, §2, §3, §4, §5, §6

[6] = vs previous cocaine maintenance session, lorcaserin 1 mg/kg, p < 0.05

Ac-PNQDQNAR-NH2 [compound 2, shorter eight amino acid version of h3L4F]
PTEN lipid phosphatase activity (PTEN; 10 µM peptide): do not suppress PTEN lipid phosphatase activity
EMAX (%5-HT) [1]: 118 ± 4.0%
change of 5-HT EC50 / potency versus 5-HT alone [1]: no change in EC50
elevation of the maximum Cai2+ release induced by 5-HT [1]: ~20%
effect on 5-HT2CR agonist-mediated Cai2+ release [2]: enhance

CC(C)(C)C(=O)Nc1ccc2c(c1)C(=O)C(=O)c1ccccc1-2 [SF1670]
PTEN lipid phosphatase activity (PTEN; 200 µM inhibitor): suppresses PTEN lipid phosphatase activity

Cc1cc2c(cc1Cl)N(C(=O)Nc1ccc(Oc3cccnc3C)nc1)CC2 [SB242084]
lorcaserin (1 mg/kg)-mediated suppression of cocaine (2.5 mg/kg) lever responding and response rate after SB242084 pretreatment ([3]; SB242084 0.5 mg/kg + lorcaserin 1 mg/kg + cocaine 2.5 mg/kg): fully recovered
cocaine-lever responding, pretreatment before cocaine (2.5 mg/kg) ([3]; combination test): did not alter cocaine lever-responding or response rate
cocaine-lever responding in substitution test ([3]; lorcaserin 1 mg/kg): engendered primarily saline-lever responding
response rate in substitution test [3, 6]: slight but significant increase in response rate

C[C@H]1CNCCc2ccc(Cl)cc21 [lorcaserin, (1R)-8-chloro-2,3,4,5-tetrahydro-1-methyl-1H-3 benzazepine]
ED50 ([4]; Rattus norvegicus, read-out: ED50 (dose predicted to elicit 50% lorcaserin-lever responding)): 0.54 mg/kg
response rates after training drug versus saline ([4]; training sessions, lorcaserin 0.75 mg/kg i.p., p < 0.05): lower than rates after saline
response rate in substitution test ([5]; lorcaserin 1 mg/kg (vs saline), TAT-r3L4F 1, 2 µmol/kg (vs previous WAY163909 maintenance session)): suppressed response rates versus saline
substitution for WAY163909 ([5]; substitution test, lorcaserin 1 mg/kg i.p.): full substitution
lever responding in substitution test (low-dose series) ([3]; TAT-r3L4F alone 1, 2 µmol/kg, lorcaserin alone 0.5 mg/kg, data not shown): saline-appropriate responding
full substitution evoked by cocaine (2.5 mg/kg) after lorcaserin (0.5 mg/kg) alone ([3]; combination test, lorcaserin 0.5 mg/kg + cocaine 2.5 mg/kg): not suppressed
cocaine-lever responding, pretreatment before cocaine (2.5 mg/kg) ([3]; combination test): significantly reduced cocaine lever-appropriate responding
response rate, pretreatment before cocaine (2.5 mg/kg) ([3]; combination test, lorcaserin 1 mg/kg, p < 0.05): significantly reduced
behavioral disruption (failure to complete FR 20) ([3]; lorcaserin 1 mg/kg i.p. alone, two rats failed to complete the FR 20 schedule): induces behavioral disruption
cocaine-lever responding in substitution test ([3]; lorcaserin 1 mg/kg): engendered primarily saline-lever responding
response rates associated with cocaine (2.5 mg/kg) ([3]; lorcaserin alone 0.5 mg/kg, or TAT-r3L4F 1, 2 µmol/kg plus lorcaserin 0.5 mg/kg, p < 0.05): significantly suppressed the response rates
response rate in substitution test (low-dose series) ([3]; vs previous cocaine maintenance session, TAT-r3L4F alone 1, 2 µmol/kg, lorcaserin alone 0.5 mg/kg, data not shown): significant reduction in response rates
response rate in substitution test [3, 6]: significant reduction in response rate

c1cc2c3c(c1)[C@H]1CCC[C@H]1N3CCNC2 [WAY163909, (7b-R,10a-R)-1,2,3,4,8,9,10,10a-octahydro-7bH-cyclopenta[b][1,4] diazepino [6,7,1hi] indole]
substitution for lorcaserin ([4]; substitution test, WAY163909 0.75 mg/kg i.p., full substitution = ≥80% drug-appropriate responding): full substitution
response rate in substitution test ([4]; vs previous lorcaserin maintenance session, WAY163909 0.75 mg/kg, TAT-r3L4F 2 µmol/kg (trend for 1 µmol/kg)): suppressed response rates similar to the training drug
ED50 (WAY163909-lever responding) ([5]; i.p., 15 min before test, 95% CI 0.51–0.61 mg/kg): 0.56 mg/kg
response rates after training drug versus saline ([5]; training sessions, WAY163909 0.75 mg/kg i.p., p < 0.05): lower than rates after saline

COC(=O)[C@H]1[C@@H](OC(=O)c2ccccc2)C[C@@H]2CC[C@H]1N2C [cocaine]
cocaine-lever responding in substitution test ([3]; lorcaserin 1 mg/kg): full substitution
response rates after training drug ([3]; training sessions, cocaine 5 mg/kg i.p., not statistically different from saline): 25.6 ± 0.55 min⁻¹

(S)-1-((S)-4-amino-2-((3S,4S)-4-((S)-1-((S)-1-carboxy-4-guanidinobutylamino)-1-oxo-propan-2-ylcarbamoyl)pyrrolidine-3-carboxamido)-4-oxobutanoyl)pyrrolidine-2-carboxylic acid [compound 7]
drug-lever responding in combination with lorcaserin (0.5 mg/kg) ([4]; combination test, i.p., TAT-r3L4F 2 µmol/kg (p < 0.05), peptide 7 2, 5 µmol/kg): modestly, but not significantly, enhanced
response rate in combination with lorcaserin (0.5 mg/kg) ([4]; combination test, i.p., TAT-r3L4F 2 µmol/kg, peptide 7 2, 5 µmol/kg): no change in rate
drug-like responding ([4]; substitution test, i.p., TAT-r3L4F 1, 2 µmol/kg, peptide 7 1, 2, 5 µmol/kg (data not shown)): < 20%
potentiation of 5-HT-induced Cai2+ release (in words) ([1]; 1 nM peptide, Welch's t-test vs 5-HT alone, α = 0.05): potentiated
EMAX (%5-HT) [1]: 125 ± 5.2%

Ac-PNQDQNARRRKKKERR-NH2 [h3L4F, 16 amino acid peptide homologous to a fragment of the third intracellular loop of the human 5-HT2CR]
PTEN lipid phosphatase activity (PTEN; 10 µM peptide): do not suppress PTEN lipid phosphatase activity
EMAX (%5-HT) [1]: 131 ± 6.3%
change of 5-HT EC50 / potency versus 5-HT alone [1]: no change in EC50
elevation of the maximum Cai2+ release induced by 5-HT [1]: ~30%
effect on 5-HT2CR agonist-mediated Cai2+ release [2]: enhance
